Laboratory results from PubChem BioAssay (NCI).
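Briefly, cells in 96-well plates were exposed to five compound concentrations for 48 h, and endpoints were estimated by linear interpolation. GI50 = concentration required for 50% inhibition of growth. TGI marks complete inhibition of growth.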

What was measured:
Assay in all cases: NCI anticancer screen, dose series, 48 h
OVCAR-4 ovarian = test system: OVCAR-4 ovarian
HS 578T breast = test system: HS 578T breast
MOLT-4 leukemia = test system: MOLT-4 leukemia
SF-295 CNS = test system: SF-295 CNS
HCT-15 colon = test system: HCT-15 colon
MALME-3M melanoma = test system: MALME-3M melanoma
HCT-116 colon = test system: HCT-116 colon
SF-539 CNS = test system: SF-539 CNS
SW-620 colon = test system: SW-620 colon
MDA-MB-231 breast = test system: MDA-MB-231 breast
T-47D breast = test system: T-47D breast
DU-145 prostate = test system: DU-145 prostate
LOX IMVI melanoma = test system: LOX IMVI melanoma
OVCAR-3 ovarian = test system: OVCAR-3 ovarian
SK-MEL-5 melanoma = test system: SK-MEL-5 melanoma
MCF7 breast = test system: MCF7 breast
NCI-H460 lung = test system: NCI-H460 lung
SK-MEL-28 melanoma = test system: SK-MEL-28 melanoma
COLO 205 colon = test system: COLO 205 colon
HCC-2998 colon = test system: HCC-2998 colon
SK-OV-3 ovarian = test system: SK-OV-3 ovarian
SNB-75 CNS = test system: SNB-75 CNS
K-562 leukemia = test system: K-562 leukemia
UO-31 renal = test system: UO-31 renal
KM12 colon = test system: KM12 colon
OVCAR-8 ovarian = test system: OVCAR-8 ovarian
PC-3 prostate = test system: PC-3 prostate
NCI-H23 lung = test system: NCI-H23 lung
NCI-H522 lung = test system: NCI-H522 lung
HOP-92 NSCLC = test system: HOP-92 NSCLC
SN12C renal = test system: SN12C renal
EKVX NSCLC = test system: EKVX NSCLC
TK-10 renal = test system: TK-10 renal
UACC-62 melanoma = test system: UACC-62 melanoma
CAKI-1 renal = test system: CAKI-1 renal
MDA-MB-435 = test system: MDA-MB-435
UACC-257 melanoma = test system: UACC-257 melanoma
RPMI-8226 leukemia = test system: RPMI-8226 leukemia
A498 renal = test system: A498 renal
A549 NSCLC = test system: A549 NSCLC
786-0 renal = test system: 786-0 renal
RXF 393 renal = test system: RXF 393 renal
SNB-19 CNS = test system: SNB-19 CNS
OVCAR-5 ovarian = test system: OVCAR-5 ovarian
SK-MEL-2 melanoma = test system: SK-MEL-2 melanoma
NCI-H226 lung = test system: NCI-H226 lung
IGROV1 ovarian = test system: IGROV1 ovarian
BT-549 breast = test system: BT-549 breast
U251 CNS = test system: U251 CNS
CCRF-CEM leukemia = test system: CCRF-CEM leukemia
HOP-62 NSCLC = test system: HOP-62 NSCLC
SF-268 CNS = test system: SF-268 CNS
HT29 colon = test system: HT29 colon
M14 melanoma = test system: M14 melanoma
ACHN renal = test system: ACHN renal

CCOC(=O)Nc1c(C)nc2ccccn12
GI50 (OVCAR-4 ovarian): > 100 µM | TGI (OVCAR-4 ovarian): > 100 µM | GI50 (HS 578T breast): > 100 µM | TGI (HS 578T breast): > 100 µM | GI50 (MOLT-4 leukemia): > 100 µM | TGI (MOLT-4 leukemia): > 100 µM | GI50 (SF-295 CNS): > 100 µM | TGI (SF-295 CNS): > 100 µM | GI50 (HCT-15 colon): > 100 µM | TGI (HCT-15 colon): > 100 µM | GI50 (MALME-3M melanoma): > 100 µM | TGI (MALME-3M melanoma): > 100 µM | GI50 (HCT-116 colon): > 100 µM | TGI (HCT-116 colon): > 100 µM | GI50 (SF-539 CNS): > 100 µM | TGI (SF-539 CNS): > 100 µM | GI50 (SW-620 colon): > 100 µM | TGI (SW-620 colon): > 100 µM | GI50 (MDA-MB-231 breast): > 100 µM | TGI (MDA-MB-231 breast): > 100 µM | GI50 (T-47D breast): > 100 µM | TGI (T-47D breast): > 100 µM | GI50 (DU-145 prostate): > 100 µM | TGI (DU-145 prostate): > 100 µM | GI50 (LOX IMVI melanoma): > 100 µM | TGI (LOX IMVI melanoma): > 100 µM | GI50 (OVCAR-3 ovarian): > 100 µM | TGI (OVCAR-3 ovarian): > 100 µM | GI50 (SK-MEL-5 melanoma): > 100 µM | TGI (SK-MEL-5 melanoma): > 100 µM | GI50 (MCF7 breast): > 100 µM | TGI (MCF7 breast): > 100 µM | GI50 (NCI-H460 lung): > 100 µM | TGI (NCI-H460 lung): > 100 µM | GI50 (SK-MEL-28 melanoma): > 100 µM | TGI (SK-MEL-28 melanoma): > 100 µM | GI50 (COLO 205 colon): > 100 µM | TGI (COLO 205 colon): > 100 µM | GI50 (HCC-2998 colon): > 100 µM | TGI (HCC-2998 colon): > 100 µM | GI50 (SK-OV-3 ovarian): > 100 µM | TGI (SK-OV-3 ovarian): > 100 µM | GI50 (SNB-75 CNS): > 100 µM | TGI (SNB-75 CNS): > 100 µM | GI50 (K-562 leukemia): > 100 µM | TGI (K-562 leukemia): > 100 µM | GI50 (UO-31 renal): > 100 µM | TGI (UO-31 renal): > 100 µM | GI50 (KM12 colon): > 100 µM | TGI (KM12 colon): > 100 µM | GI50 (OVCAR-8 ovarian): > 100 µM | TGI (OVCAR-8 ovarian): > 100 µM | GI50 (PC-3 prostate): > 100 µM | TGI (PC-3 prostate): > 100 µM | GI50 (NCI-H23 lung): > 100 µM | TGI (NCI-H23 lung): > 100 µM | GI50 (NCI-H522 lung): > 100 µM | TGI (NCI-H522 lung): > 100 µM | GI50 (HOP-92 NSCLC): > 100 µM | TGI (HOP-92 NSCLC): > 100 µM | GI50 (SN12C renal): > 100 µM | TGI (SN12C renal): > 100 µM | GI50 (EKVX NSCLC): > 100 µM | TGI (EKVX NSCLC): > 100 µM | GI50 (TK-10 renal): > 100 µM | TGI (TK-10 renal): > 100 µM | GI50 (UACC-62 melanoma): > 100 µM | TGI (UACC-62 melanoma): > 100 µM | GI50 (CAKI-1 renal): > 100 µM | TGI (CAKI-1 renal): > 100 µM | GI50 (MDA-MB-435): > 100 µM | TGI (MDA-MB-435): > 100 µM | GI50 (UACC-257 melanoma): > 100 µM | TGI (UACC-257 melanoma): > 100 µM | GI50 (RPMI-8226 leukemia): > 100 µM | TGI (RPMI-8226 leukemia): > 100 µM | GI50 (A498 renal): > 100 µM | TGI (A498 renal): > 100 µM | GI50 (A549 NSCLC): > 100 µM | TGI (A549 NSCLC): > 100 µM | GI50 (786-0 renal): > 100 µM | TGI (786-0 renal): > 100 µM | GI50 (RXF 393 renal): > 100 µM | TGI (RXF 393 renal): > 100 µM | GI50 (SNB-19 CNS): > 100 µM | TGI (SNB-19 CNS): > 100 µM | GI50 (OVCAR-5 ovarian): > 100 µM | TGI (OVCAR-5 ovarian): > 100 µM | GI50 (SK-MEL-2 melanoma): > 100 µM | TGI (SK-MEL-2 melanoma): > 100 µM | GI50 (NCI-H226 lung): > 100 µM | TGI (NCI-H226 lung): > 100 µM | GI50 (IGROV1 ovarian): > 100 µM | TGI (IGROV1 ovarian): > 100 µM | GI50 (BT-549 breast): > 100 µM | TGI (BT-549 breast): > 100 µM | GI50 (U251 CNS): > 100 µM | TGI (U251 CNS): > 100 µM | GI50 (CCRF-CEM leukemia): > 100 µM | TGI (CCRF-CEM leukemia): > 100 µM | GI50 (HOP-62 NSCLC): > 100 µM | TGI (HOP-62 NSCLC): > 100 µM | GI50 (SF-268 CNS): > 100 µM | TGI (SF-268 CNS): > 100 µM | GI50 (HT29 colon): > 100 µM | TGI (HT29 colon): > 100 µM | GI50 (M14 melanoma): > 100 µM | TGI (M14 melanoma): > 100 µM | GI50 (ACHN renal): > 100 µM | TGI (ACHN renal): > 100 µM
